The record followed here is PubChem BioAssay AID179 (DTP/NCI, 2004).

Calls of active or inactive are those of the source.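 The calls were made as follows: active = compounds giving half or more protection of infected cells from virus-caused growth loss, again on retest; inactive = the rest.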

For this experiment, the system named is CEM cells HIV-1 protection, formazan growth assay. Put plainly: NCI AIDS Antiviral Assay. The conditions noted are these: for IC50: measured here: growth of uninfected CEM cells. In a few lines: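 Human CEM cells, uninfected and HIV-1-infected, received five drug concentrations, and growth was read by soluble formazan assay. Compounds giving at least 50% protection were retested; reproducible 100% protection defined confirmed active.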

`O=c1c2cc(Br)ccc2nc(-c2ccccc2)n1NCC1(O)OCC(O)C(O)C1O` (stereo unspecified): the outcome was inactive.
`CCCCCN(CCCCC)CCC(=O)c1ccc2cc(Br)c3ccccc3c2c1`: the EC50 is > 200 µM and the IC50 stood at 12.6 µM.
Taken in the same sequence, the figures for `O=C1CN(CCN2CCOCC2)CC(=O)N2CCCCN12` were > 200 µM and > 200 µM.
Regarding `C=C1C2CCC3(C4C[C@@H]5C6(C)CCCC5([C@H](O4)N4CCO[C@H]46)[C@@H]3C2)C1OC(C)=O` (stereo partly specified), the EC50 was > 18.2 µM and the IC50 is > 18.2 µM.
In the case of `c1ccc2nc3c(cc2c1)[nH]c1ccccc13`, the EC50 is > 339 µM and the IC50 was 204 µM.
Consider `CC(=O)OC1SC(OC(C)=O)C2OC(=O)OC12` (stereo unspecified), for which the EC50 was > 871 µM and the IC50 came to 155 µM.
On to `COc1cc2c(cc1OC)C(Cc1cc(OCc3ccccc3)c(OC)cc1N)N(C)CC2` (stereo unspecified), for which the outcome was inactive.
As for `CN1C(=O)C(C)(C)C2(SC(C)(C)C2(C)C)N(C)C1=S` (stereo unspecified), the EC50 is > 24 µM and the IC50 is > 24 µM.
Consider `Clc1ccc(-n2cccc2)cc1`, for which the EC50 is > 200 µM and the IC50 is > 200 µM.
On to `Cc1cc(=O)[nH]c2cc(NC(=O)C(C)NC(=O)C(C)NC(=O)C(C)NC(=O)OC(C)(C)C)ccc12` (stereo unspecified), for which the EC50 was > 200 µM and the IC50 is > 200 µM.
As to `CC1(C)OCC2(CO1)CSCCCSCC1(COC(C)(C)OC1)CSCCCSC2`, the EC50 is > 10.5 µM and the IC50 was > 10.5 µM.
`CN(C(=O)Cc1ccccc1)n1cnn(CC(=O)OC(C)(C)C)c1=S`: the EC50 is > 200 µM and the IC50 was > 200 µM.
Turning to `COc1ccc(/C=C/C(=O)c2sc(-c3cccnc3)nc2C)cc1`, the EC50 was > 21.4 µM and the IC50 is > 21.4 µM.
Consider `CC(C)(C)C(O)CC(O)(C(F)(F)F)C(F)(F)F` (stereo unspecified), for which the EC50 is > 200 µM and the IC50 is > 200 µM.
As to `N#C[C@H]1Nc2ccccc2[C@@H](O)C1O` (stereo partly specified), the EC50 is > 1320 µM and the IC50 is > 1320 µM.
Take `CC1=C(C(=O)N(C(C)C)C(C)C)CC(C(=O)N(C(C)C)C(C)C)=C(C)N1`: the EC50 was > 200 µM and the IC50 was determined as 120 µM.
As for `C=C1CC(Cn2ccc(=O)[nH]c2=O)(c2ccc(OC)cc2)OC1=O` (stereo unspecified), the EC50 is > 200 µM and the IC50 came out at 2.75 µM.
For `O=C(Cc1c(C(=O)Nc2ccccc2)sc(C(=O)Nc2ccccc2)c1CC(=O)Nc1ccccc1)Nc1ccccc1`, the result was inactive.
Regarding `CCOC(=O)C1=C(C)N(C2OC(COC(C)=O)C(OC(C)=O)C(OC(C)=O)C2OC(C)=O)C(=O)NC1c1ccccc1` (stereo unspecified), the EC50 is > 31.6 µM and the IC50 was > 31.6 µM.
`COc1ccc(CN2CCCN(Cc3ccc(OC)cc3)S2)cc1`: the EC50 is > 75.9 µM and the IC50 stood at 31.6 µM.
Consider `Cc1ccc2c(c1)-c1c(C#N)c(N)nc(-c3ccccc3)c1CCS2(=O)=O`, for which the EC50 is > 200 µM and the IC50 was 2.09 µM.
On to `O=C(NCCCNCCCCNCCCNC(=O)C(F)(F)F)C(F)(F)F`, for which the EC50 is > 200 µM and the 50% inhibitory concentration (IC50) came to 14.8 µM.
Turning to `CC1=C(C(N)=O)C(c2ccncc2)C(C#N)=C2SCC(=O)N12` (stereo unspecified), the EC50 is > 200 µM and the half-inhibitory concentration (IC50) was > 200 µM.
Consider `CN=C(NC#N)N(Cc1ccccc1)Cc1ccccc1`, for which the EC50 is > 129 µM and the IC50 was > 100 µM.
In the case of `CC(C)=CCC/C(C)=C/CCC1(C)C2COC(=O)C21` (stereo unspecified), the EC50 was > 200 µM and the IC50 stood at 46.8 µM.
With `CC(NC1=NCCO1)c1cccs1` (stereo unspecified), the EC50 was > 200 µM and the IC50 was 138 µM.
Regarding `O=c1nc(-c2ccccc2)cc(CC(O)(c2ccc(C(F)(F)F)cc2)c2ccc(Cl)c(Cl)c2)[nH]1` (stereo unspecified), the EC50 is > 20 µM and the IC50 is > 20 µM.
As for `Nc1c(N=O)c(=O)n(Cc2ccccc2)c(=O)n1Cc1ccccc1`, the EC50 is > 200 µM and the IC50 turned out to be 11.7 µM.
On to `CN1C(=O)N(C)C2(CCN(CCCCCCF)CC2)C1=O`, for which the EC50 was > 200 µM and the IC50 was > 200 µM.
As for `CC1(C)CNCC2(C)OCCCCCCCCCCOC3(C)CNCC(C)(C)[N-]C(=O)C(C)(CNCC(C)(C)[N-]C3=O)OCCCCCCCCCCOC(C)(CNCC(C)(C)[N-]C2=O)C(=O)[N-]1.[Ni+2].[Ni+2]`, the EC50 is > 200 µM.
Consider `Cc1cccnc1CC(O)c1ccccc1` (stereo unspecified), for which the EC50 is > 200 µM and the IC50 amounted to 107 µM.
For `CCCCCCCCCCCCCCCCCC(=O)OC[C@H](COP(=O)(O)OCCNC(=O)CCC(=O)O)OC(=O)CCCCCCCCCCCCCCCCC`, the EC50 was > 50.1 µM and the IC50 is > 50.1 µM.
Turning to `Cc1c(Cc2ccccc2)c(=O)oc2cc(O)ccc12`, the EC50 is > 97.7 µM and the IC50 was 93.3 µM.
The matching figures for `CCCCCCC(C)S(=O)(=O)O` (stereo unspecified): > 200 µM and > 200 µM.
On to `NNC(=O)CSc1nc2ccccc2c(=O)n1N`, for which the EC50 was > 200 µM and the IC50 was > 200 µM.
For `CCc1cc2c(cc1CCCC(=O)O)CC1(Cc3ccc(C(=O)O)cc3C1)C2` (stereo unspecified), the EC50 is > 200 µM and the IC50 is 155 µM.
As to `CCCCCC(/C=C/C1CCC(=O)C1CC#C[Si](C)(C)C)OCc1ccccc1` (stereo unspecified), the EC50 was > 200 µM and the IC50 stood at 27.5 µM.
On to `CCOC(=O)CCCN(C(=O)c1ccccc1)c1scc(-c2ccccc2)c1C(=O)OCC`, for which the EC50 was > 200 µM and the IC50 came out at 11.5 µM.
Consider `O=NN(CCCl)C(=O)NC1CCCCC1`, for which the EC50 is > 1070 µM and the IC50 was 35.5 µM.
As to `CC[N+]1(C)CCC(O)(/C=C/c2ccc(Cl)cc2)C(C(=O)/C=C/c2ccc(Cl)cc2)C1` (stereo unspecified), the EC50 is > 20 µM and the IC50 came out at 2.95 µM.
Regarding `COc1ccc2c3csc4ccccc4c-3nc2c1`, the EC50 was > 200 µM and the IC50 turned out to be 0.427 µM.
Regarding `CC(C)=CCN1c2ccc(Cl)cc2NC(=O)CC1C` (stereo unspecified), the EC50 is > 87.1 µM and the IC50 worked out at 49 µM.
Consider `COc1cc(-c2[o+]c3cc(O)cc(OC4OC(CO)C(O)C(O)C4O)c3cc2OC2OC(CO)C(O)C(O)C2O)cc(OC)c1O` (stereo unspecified), for which the EC50 is > 67.6 µM and the IC50 was 40.7 µM.
With `CCC(Sc1cc(Cl)c(C)cc1S(=O)(=O)Nc1nc(N)nc(N(C)C)n1)C(=O)O` (stereo unspecified), the result was inactive.
`COc1ccccc1/C=C(/C(C)=O)C(=O)c1ccccc1`: the EC50 is > 25.7 µM and the IC50 was > 25.7 µM.
`COc1cc(/C=C(\C#N)C(=O)c2ccccc2)cc(OC)c1OC`: the EC50 is > 16.2 µM and the IC50 was > 16.2 µM.
With `CC1(C)OCC(C2OC(OC(=O)c3ccc(C(F)(F)F)cc3)C3OC(C)(C)OC23)O1` (stereo unspecified), the outcome was inactive.
As to `COc1ccccc1/C=C\C#N`, the EC50 is > 85.1 µM and the IC50 is > 85.1 µM.
As for `CC(=Nc1ccc([N+](=O)[O-])cc1)c1ccc(O)cc1`, the EC50 was > 200 µM and the IC50 amounted to 10.7 µM.
With `N#CC(/C(=N/NC(=O)C(=O)NN)C(=O)Nc1nc([N+](=O)[O-])cs1)c1ccc(Cl)cc1` (stereo unspecified), the EC50 is 95.5 µM and the IC50 came to 209 µM.
With `COc1cc2cccc(N=Cc3ccccc3Cl)c2cc1OC`, the EC50 was > 30.9 µM and the IC50 was > 30.9 µM.
As to `C#CCOCn1ccc(=O)[nH]c1=O`, the EC50 was > 200 µM and the IC50 was > 200 µM.
For the compound `Cc1cccc(C)c1NC(=S)/N=C\c1c(O)[nH]c(=O)[nH]c1=O`, the EC50 was > 200 µM and the IC50 is > 200 µM.
Consider `NNC(=O)Cn1ccnn1`, for which the EC50 is > 200 µM and the IC50 is > 200 µM.
Turning to `O=c1ccnc(Nc2ccc[nH]c2=S)[nH]1`, the EC50 is > 589 µM and the IC50 worked out at 282 µM.
For `CCOC1=NC(=O)CC(c2ccccc2)S1` (stereo unspecified), the outcome was inactive.
Take `CCN=C(NNc1ccc([N+](=O)[O-])cc1)P(=O)(OC(C)C)OC(C)C`: the EC50 was > 36.3 µM and the IC50 was > 36.3 µM.
With `NC(=O)c1ccc(NN=O)nc1`, the EC50 is > 200 µM and the IC50 was > 200 µM.
Consider `OCC1OCOC2COCOC12` (stereo unspecified), for which the EC50 is > 200 µM and the IC50 is > 200 µM.
Consider `Cn1c2ccccc2c(=O)c2c(O)cc3c(c21)N=CC(C)(C)O3`, for which the outcome was inactive.
As for `O=C(c1ccc(Cl)cc1)c1ccc(OCCCOc2ccc(C(=O)c3ccc(Cl)cc3)cc2Cl)c(Cl)c1`, the EC50 was > 4.79 µM and the IC50 was > 4.79 µM.
As for `O=c1[nH]oc(NS(=O)(=O)c2ccccc2)c1C1CCCCC1`, the EC50 was > 200 µM and the IC50 stood at 97.7 µM.
As for `O=[N+]([O-])C(/C=C(\Cl)[N+](=O)[O-])=C1Nc2ccccc2N1`, the EC50 is > 200 µM and the IC50 came out at 35.5 µM.
As to `COc1cc(C(=O)Oc2c(C(C)=O)sc3c2c(=O)n(-c2ccccc2)c(=S)n3-c2ccccc2)cc(OC)c1OC`, the EC50 was > 200 µM and the IC50 turned out to be 1.1 µM.
On to `O=C(NCc1ccncc1)C1COc2cc(-c3cc(=O)c4ccccc4o3)ccc2O1` (stereo unspecified), for which the outcome was inactive.
As for `CCO/C=C1\N=C(C(Cl)c2ccccc2)OC1=O` (stereo unspecified), the EC50 is > 135 µM and the IC50 was > 135 µM.
Regarding `CS/C1=C(\c2ccc(C)cc2)N(c2ccccc2)C(=O)C(=O)N(c2ccccc2)/C(c2ccc(C)cc2)=C(/SC)SS1`, the EC50 is > 200 µM and the IC50 is 47.9 µM.
In the case of `CN(C)CC1(C)Cc2sccc2C1=O` (stereo unspecified), the EC50 was > 200 µM and the IC50 is > 200 µM.
As for `O=C(O)c1ccccc1-n1nc(C(=O)O)c(N=Nc2ccc(/C=C/c3ccc(N=Nc4c(C(=O)O)nn(-c5ccccc5C(=O)O)c4O)cc3S(=O)(=O)O)c(S(=O)(=O)O)c2)c1O.[Cu+2].[Na+]`, the EC50 is > 0.479 µM and the IC50 is > 0.479 µM.
Consider `O=S(O)CCCSSCCCCSSCCCS(=O)O`, for which the result was inactive.
As to `CCCCCC(Nc1nncs1)Nc1nncs1`, the EC50 is > 200 µM and the IC50 is > 200 µM.
For `CCN(CC)CCN1CCNc2c3cc(OC)ccc3nc3c([N+](=O)[O-])ccc1c23`, the EC50 was > 100 µM and the IC50 was 1.58 µM.
With `Cc1nc2c(=O)[nH]c3ccccc3c2o1`, the EC50 was > 200 µM and the IC50 is > 200 µM.
